Experimental data: ChEMBL document CHEMBL1759957, “Synthesis and antibacterial evaluation of novel 8-fluoro Norfloxacin derivatives as potential probes for methicillin and vancomycin-resistant Staphylococcus aureus” (2011)
Values after ≈ are worked out from the molar mass of the structure shown.

Key:
Test in all cases: microbe, parasite or virus in culture
Assay type in all cases: functional
Staphylococcus aureus [1] = settings: ATCC 25923, 24 h
Description: Antibacterial activity against methicillin- resistant Staphylococcus aureus ATCC 25923 after 24 hrs by spectrophotometry

Klebsiella pneumoniae = settings: ATCC 27736, 24 h
Description: Antibacterial activity against Klebsiella pneumoniae ATCC 27736 after 24 hrs by spectrophotometry

Staphylococcus aureus [2] = settings: ATCC 29213, 24 h
Description: Antibacterial activity against methicillin- resistant and vancomycin resistant Staphylococcus aureus ATCC 29213 after 24 hrs by spectrophotometry

Compound `CC(C)(C)Nc1nc(NC(C)(C)C)nc(N2CCN(c3c(F)cc4c(=O)c(C(=O)O)cn(Cc5ccc(C(F)(F)F)cc5)c4c3F)CC2)n1` has an MIC (Staphylococcus aureus [1]) of 3.12 µg/mL (≈ 4.53 µM), an MIC (Klebsiella pneumoniae) of 1.56 µg/mL (≈ 2.27 µM) and an MIC (Staphylococcus aureus [2]) of 6.25 µg/mL (≈ 9.08 µM).

Work on `CCCNc1nc(C)cc(N2CCN(c3c(F)cc4c(=O)c(C(=O)O)cn(Cc5ccc(C(F)(F)F)cc5)c4c3F)CC2)n1` yielded an MIC (Staphylococcus aureus [1]) of 1.56 µg/mL (≈ 2.53 µM), an MIC (Klebsiella pneumoniae) of 1.56 µg/mL (≈ 2.53 µM) and an MIC (Staphylococcus aureus [2]) of 3.12 µg/mL (≈ 5.06 µM).
